In patent publication US12331068B2, “Compositions and methods for inhibiting CD73” (Peloton Therapeutics, Inc., priority 2018, dated 2025) one finds IC50 data, which are given here for 30 compounds.

Test [1] concerns the target T1, CD73 on U138 human neuroglioma cells (Homo sapiens, UniProt P21589).
T1 construct: U138 cells were obtained from ATCC and cultured in DMEM with 10% FBS; host or cells: U138 human neuroglioma cells
T1 sequence (P21589 27-549): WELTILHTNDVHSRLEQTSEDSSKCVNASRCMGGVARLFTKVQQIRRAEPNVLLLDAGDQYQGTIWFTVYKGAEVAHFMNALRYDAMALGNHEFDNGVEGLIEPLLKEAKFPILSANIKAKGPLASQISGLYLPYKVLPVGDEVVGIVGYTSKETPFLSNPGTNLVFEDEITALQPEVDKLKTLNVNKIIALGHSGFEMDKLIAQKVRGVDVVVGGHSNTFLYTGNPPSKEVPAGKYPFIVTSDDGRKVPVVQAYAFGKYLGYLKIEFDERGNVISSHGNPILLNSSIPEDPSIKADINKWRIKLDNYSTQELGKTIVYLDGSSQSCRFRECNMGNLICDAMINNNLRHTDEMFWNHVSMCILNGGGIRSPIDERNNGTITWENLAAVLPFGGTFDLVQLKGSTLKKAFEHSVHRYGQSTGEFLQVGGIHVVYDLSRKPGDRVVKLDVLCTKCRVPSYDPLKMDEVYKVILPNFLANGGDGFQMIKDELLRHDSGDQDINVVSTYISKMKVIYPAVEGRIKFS
In words: CD73 Cell-Based Assay (inorganic phosphate from AMP, malachite green). The settings on record: AMP substrate, 2 hours at 37° C., read-out: CD73 Cell-Based assay IC50. The protocol:
U138 human neuroglioma cells were used in these experiments. U138 cells were obtained from ATCC and cultured in DMEM with 10% FBS. 2500 cells were seeded into 96-well plate with 100 μL of media the day before the experiment. […] After washing, 100 μL of buffer was added to each well, then 100 μL of a mixture of AMP substrate (200 μM) and diluted compound was added to each well. The cells were incubated at 37° C. (with 5% CO2) for 2 hours. 50 μL of supernatant was transferred to a 96-well assay plate and the concentration of inorganic phosphate was determined using malachite green reagent (R&D System; Cat: DY996).

Another test has as its target T2, Human CD73 (Homo sapiens, UniProt P21589).
T2 construct: purchased R&D Systems; host or cells: CHO cells
T2 sequence (P21589 27-549): T1 sequence (P21589 27-549)
Kind of test: CD73 Enzyme Assay (EnzChek PNP/MESG kinetic readout of AMP hydrolysis). It counts as biochemical. As to the method:
A compound of the present disclosure (5 μL) was transferred to a 384-well assay plate. The compound was added in a 15 point, 3-fold serial dilution (300 μM to 0.0002 μM) in DMSO. […] The plate was immediately placed in a plate reader (Synergy 2 or Spark 10), and a reading was taken every minute for 10 to 20 minutes in a kinetic run at 360 nm. The linear portion of the curve was used to determine the observed rate (initial velocity). Low signal controls containing 100 μM adenosine 5′-(α,β-methylene) diphosphate and high signal controls containing no compound were measured for each plate.
IC50 values were calculated using Dotmatics template equation for 4-parameter fit. Results are expressed as % inhibition using the following equation: […]

Where [2] appears, read: 0.25 nM hCD73, 25 μM AMP, read-out: CD73 Enzyme Assay IC50.

Read-outs that look alike come from different tables or passages of the source. Bounds are passed on as bounds.

Broadly, the IC50 is the point on the concentration scale where inhibition reaches its midpoint. For the compound `C[C@H](Nc1c(C#N)c(Cl)nc2c1ccn2[C@@H]1O[C@H](COP(=O)(O)CP(=O)(O)O)[C@@H](O)[C@@H]1F)c1ccc(F)cc1` [Compound 241], the IC50 (in test [1]; on Human CD73 (setting [2])) was < 10 nM each time.
`N#Cc1c(Cl)nc2c(ccn2[C@@H]2O[C@H](COCP(=O)(O)O)[C@@H](O)[C@H]2O)c1N1CC[C@@H](F)C1` [Compound 66]: the IC50 (in test [1]; at Human CD73 (setting [2])) was < 10 nM each time.
Turning to `N#Cc1c(Cl)nc2c(ccn2[C@@H]2O[C@H](CS(=O)(=O)CP(=O)(O)O)[C@@H](O)[C@@H]2F)c1NC1CCCC1` [Compound 170], the IC50 (in test [1]; on Human CD73 (setting [2])) was < 10 nM each time.
Turning to `C[C@H](Nc1c(C#N)c(Cl)nc2c1ncn2[C@@H]1O[C@H](COP(=O)(O)CP(=O)(O)O)[C@@H](O)[C@@H]1F)c1ccc(F)cc1` [Compound 245], the IC50 (in test [1]; on Human CD73 (setting [2])) was < 10 nM each time.
As for `C[C@H](Nc1c(C#N)c(Cl)nc2c1cnn2[C@@H]1O[C@H](COP(=O)(O)CP(=O)(O)O)[C@@H](O)[C@H]1O)c1ccc(F)cn1` [Compound 271], the IC50 at Human CD73 (setting [2]) is < 10 nM.
Regarding `N#Cc1c(Cl)nc2c(cnn2[C@@H]2O[C@H](COCP(=O)(O)O)[C@@H](O)[C@H]2O)c1N1CC2CC2C1` (stereo partly drawn) [Compound 71], the concentration for half-maximal inhibition (IC50) (in test [1]; on Human CD73 (setting [2])) was < 10 nM in each case.
For `N#Cc1c(Cl)nc2c(ccn2[C@@H]2O[C@H](COC(CO)P(=O)(O)O)[C@@H](O)[C@H]2O)c1N1CC2CCCC2C1` (stereo partly drawn) [Compound 51], the IC50 (in test [1]; on Human CD73 (setting [2])) was < 10 nM in each case.
`N#Cc1c(Cl)nc2c(ccn2[C@@H]2O[C@H](COCP(=O)(O)O)[C@@H](O)[C@H]2O)c1NC1CCCC1` [Compound 1, ((((2R,3S,4R,5R)-5-(6-chloro-5-cyano-4-(cyclopentylamino)-1H-pyrrolo[2,3-b]pyridin-1-yl)-3,4-dihydroxytetrahydrofuran-2-yl)methoxy)methyl)phosphonic acid]: the IC50 (in test [1]; at Human CD73 (setting [2])) was < 10 nM throughout.
For `Cc1nc2c(ccn2[C@@H]2O[C@H](COP(=O)(O)CP(=O)(O)O)[C@@H](O)[C@H]2O)c(NC2CCCC2)c1C#N` [Compound 49], the half-inhibitory concentration (IC50) (in test [1]; on Human CD73 (setting [2])) was < 10 nM throughout.
With `N#Cc1c(Cl)nc2c(ccn2[C@@H]2O[C@H](CS(=O)(=O)CP(=O)(O)O)[C@@H](O)[C@H]2O)c1N[C@H]1C[C@H](F)C1` [Compound 76, (((((2S,3S,4R,5R)-5-(6-chloro-5-cyano-4-(((1r,3R)-3-fluorocyclobutyl)amino)-1H-pyrrolo[2,3-b]pyridin-1-yl)-3,4-dihydroxytetrahydrofuran-2-yl)methyl)sulfonyl)methyl)phosphonic acid], the IC50 (in test [1]; on Human CD73 (setting [2])) was < 10 nM throughout.
`N#Cc1c(Cl)nc2c(cnn2[C@@H]2O[C@H](COCP(=O)(O)O)[C@@H](O)[C@H]2O)c1NC1CC(F)C1` (stereo partly drawn) [Compound 89]: the IC50 (in test [1]; at Human CD73 (setting [2])) was < 10 nM each time.
On to `C[C@@H](Nc1c(C#N)c(Cl)nc2c1ccn2[C@@H]1O[C@H](COP(=O)(O)CP(=O)(O)O)[C@@H](O)[C@H]1O)c1ccc(F)cn1` [Compound 222, (((((2R,3S,4R,5R)-5-(6-chloro-5-cyano-4-(((R)-1-(5-fluoropyridin-2-yl)ethyl)amino)-1H-pyrrolo[2,3-b]pyridin-1-yl)-3,4-dihydroxytetrahydrofuran-2-yl)methoxy)(hydroxy)phosphoryl)methyl)phosphonic acid], for which the IC50 (in test [1]; on Human CD73 (setting [2])) was < 10 nM in each case.
On to `C[C@H](Nc1c(C#N)c(Cl)nc2c1ncn2[C@@H]1O[C@H](COP(=O)(O)CP(=O)(O)O)[C@@H](O)[C@H]1O)c1ccc(F)cc1` [Compound 215, (((((2R,3S,4R,5R)-5-(5-chloro-6-cyano-7-(((S)-1-(4-fluorophenyl)ethyl)amino)-3H-imidazo[4,5-b]pyridin-3-yl)-3,4-dihydroxytetrahydrofuran-2-yl)methoxy)(hydroxy)phosphoryl)methyl)phosphonic acid], for which the IC50 (in test [1]; at Human CD73) was < 10 nM each time.
As to `Nc1ncnc2c1ncn2[C@@H]1O[C@H](COP(=O)(O)CP(=O)(O)O)[C@@H](O)[C@H]1O` [adenosine 5′-(α,β-methylene) diphosphate, reference compound], the IC50 at Human CD73 (low signal control compound, 0.25 nM hCD73, 25 μM AMP, read-out: IC50) was determined as 50 nM.
Turning to `N#Cc1c(Cl)nc2c(ccn2[C@@H]2O[C@H](COP(=O)(O)CP(=O)(O)O)[C@@H](O)[C@H]2O)c1NC1CC2CC2C1` (stereo partly drawn) [Compound 28], the IC50 (in test [1]; at Human CD73 (setting [2])) was < 10 nM throughout.
For `C[C@H](Nc1c(C#N)c(Cl)nc2c1ccn2[C@@H]1O[C@H](COP(=O)(O)CP(=O)(O)O)[C@@H](O)[C@@H]1F)c1ccc(C#N)cc1` [Compound 230], the IC50 (in test [1]; at Human CD73 (setting [2])) was < 10 nM in each case.
`N#Cc1c(Cl)nc2c(cnn2[C@@H]2O[C@H](COCP(=O)(O)O)[C@@H](O)[C@H]2O)c1N1C[C@@H](F)[C@@H](F)C1` [Compound 91, ((((2R,3S,4R,5R)-5-(6-chloro-5-cyano-4-((3S,4R)-3,4-difluoropyrrolidin-1-yl)-1H-pyrazolo[3,4-b]pyridin-1-yl)-3,4-dihydroxytetrahydrofuran-2-yl)methoxy)methyl)phosphonic acid]: the IC50 (in test [1]; at Human CD73 (setting [2])) was < 10 nM each time.
In the case of `C[C@@H](Nc1c(C#N)c(Cl)nc2c1ccn2[C@@H]1O[C@H](COP(=O)(O)CP(=O)(O)O)[C@@H](O)[C@H]1O)c1ccc(C#N)cc1` [Compound 213], the IC50 (in test [1]; at Human CD73 (setting [2])) was < 10 nM in each case.
Consider `N#Cc1c(Cl)nc2c(ccn2[C@@H]2O[C@H](CS(=O)(=O)CP(=O)(O)O)[C@@H](O)[C@H]2O)c1NC1CC2(CCC2)C1` [Compound 158], for which the IC50 (in test [1]; on Human CD73 (setting [2])) was < 10 nM each time.
For the compound `C[C@H](Nc1c(C#N)c(Cl)nc2c1cnn2[C@@H]1O[C@H](COP(=O)(O)CP(=O)(O)O)[C@@H](O)[C@H]1O)c1ccc(C#N)cc1` [Compound 243], the half-maximal inhibitory concentration (IC50) (in test [1]; at Human CD73 (setting [2])) was < 10 nM throughout.
Consider `C[C@@H](Nc1c(C#N)c(Cl)nc2c1cnn2[C@@H]1O[C@H](COP(=O)(O)CP(=O)(O)O)[C@@H](O)[C@H]1O)c1ccc(F)cn1` [Compound 258], for which the IC50 at Human CD73 (setting [2]) is < 10 nM.
The same measure, in the same setting: the result for `C[C@H](Nc1c(C#N)c(Cl)nc2c1cnn2[C@@H]1O[C@H](COP(=O)(O)CP(=O)(O)O)[C@@H](O)[C@H]1O)c1ccccc1F` [Compound 260] reads < 10 nM; that for `N#Cc1c(OCCO)nc2c(ccn2[C@@H]2O[C@H](COCP(=O)(O)O)[C@@H](O)[C@H]2O)c1NC1CCCC1` [Compound 2], 10 to 100 nM.
Same read-out and setting: for `N#Cc1c(OCCO)nc2c(ccn2[C@@H]2O[C@H](COCP(=O)(O)O)[C@@H](O)[C@H]2O)c1N1CC2CCCC2C1` (stereo partly drawn) [Compound 52] the value was > 100 nM.
On the same count and under the same terms, for `N#Cc1nc2c(ccn2[C@@H]2O[C@H](CS(=O)(=O)CP(=O)(O)O)[C@@H](O)[C@@H]2F)c(N)c1C#N` [Compound 189] the value was > 100 nM; for `CNC(=O)c1c(Cl)nc2c(ccn2C2O[C@H](COCP(=O)(O)O)[C@@H](O)[C@H]2O)c1NC1CCCC1` (stereo partly drawn) [Compound 40], 10 to 100 nM.
Take `N#Cc1c(Cl)nc2c(ccn2[C@@H]2O[C@H](COCP(=O)(O)O)[C@@H](O)[C@@H]2F)c1N1CCC(F)(F)C1` [Compound 98]: the IC50 on Human CD73 (setting [2]) was in the range of 10 to 100 nM.
Same read-out and setting: for `N#Cc1c(Cl)nc2c(ncn2[C@@H]2O[C@H](COCP(=O)(O)O)[C@@H](O)[C@@H]2F)c1N1CCC(F)(F)C1` [Compound 100] the value was 10 to 100 nM; for `N#Cc1c(Cl)nc2c(cnn2[C@@H]2O[C@H](COCP(=O)(O)O)[C@@H](O)[C@@H]2F)c1N1CCC(F)(F)C1` [Compound 99, ((((2R,3R,4S,5R)-5-(6-chloro-5-cyano-4-(3,3-difluoropyrrolidin-1-yl)-1H-pyrazolo[3,4-b]pyridin-1-yl)-4-fluoro-3-hydroxytetrahydrofuran-2-yl)methoxy)methyl)phosphonic acid], > 100 nM.
Still for that read-out and setting: for `C[C@@H](Nc1c(C#N)c(Cl)nc2c1cnn2[C@@H]1O[C@H](COP(=O)(O)CP(=O)(O)O)[C@@H](O)[C@H]1O)c1ccc(F)cc1` [Compound 270] the value was < 10 nM.
